Patent US11632948B2, “Recrystallization inhibitor” (THE UNIVERSITY OF WARWICK, priority 2017, dated 2023)
No end group written: not given here.

Test: Ice recrystallisation inhibition (IRI) SPLAT assay
Settings: 30 min at −8° C., relative to PBS control
Protocol: A series of peptides were tested for IRI activity using a SPLAT assay. Briefly, this involved seeding a large number of small ice crystals, which were annealed for 30 minutes at −8° C., before being photographed. The average crystal size was then measured, relative to a PBS control, with smaller values indicating more IRI activity, FIGS. 3B/1C.
Ice recrystallisation inhibition (IRI) activity was measured using a modified splat assay. A 10 μL sample of polymer dissolved in PBS buffer (pH 7.4) was dropped 1.40 m onto a chilled glass coverslip, resting on a thin aluminium block placed on dry ice. Upon hitting the coverslip, a wafer with diameter of approximately 10 mm and thickness 10 μm was formed instantaneously. The glass coverslip was transferred onto the Linkam cryostage and held at −8° C. under N2 for 30 minutes. Photographs were obtained using an Olympus CX 41 microscope with a UIS-2 20 ×/0.45/∞/0-2/FN22 lens and crossed polarizers (Olympus Ltd, Southend-on-Sea, UK), equipped with a Canon DSLR 500D digital camera. Images were taken of the initial wafer (to ensure that a polycrystalline sample had been obtained) and again after 30 minutes. Image processing was conducting using Image J, which is freely available. In brief, five of the largest ice crystals in the field of view were measured and the single largest length in any axis recorded. The average (mean) of these five measurements was then calculated to find the largest grain dimension along any axis. This was repeated for three individual wafers, and the average (mean) of these three values was calculated to give the mean largest grain size (MLGS). The average value was compared to that of a PBS buffer negative control.
In the case of poly(proline), the IRI activity is reported as “significant IRI activity”.
In the case of poly(glutamic acid) [PGlu110], the IRI activity is reported as “no IRI”.
For “poly-L-proline mol wt 1,000-10,000 [PPro10-100]”, the IRI activity was “potent inhibition”.
With “poly(lysine) (KKKKKKKKKKKKKKKKKKKKKKKKKKKKKKKKKKKKKKKKKKKKKKKKKK; Poly(lysine) with 50 Lys residues) [PLys50]” the IRI activity was “no IRI”.
For `O=C(O)[C@@H]1CCCN1` [proline, L-proline], the IRI activity was “no IRI activity”.
For “PGlu10: poly(glutamic acid) 10-mer (SEQ ID NO: 18), computationally modelled”, the IRI activity was “no IRI activity”.

Same assay, conditions: comparison
For poly(proline), the “IRI activity compared to another polymer” value was “more active than poly(hydroxyproline)”.

Test: not given
Settings: from cited references; cited from earlier work
In the case of “Nisin A (ITSISLCTPGCKTGALMGCNMKTATCHCSIHVSK; also: lantibiotic, lanthionine rings and dehydro residues not placed; UniProt P13068 24-57, looked up) [a short antimicrobial peptide]”, the “IRI activity (literature)” value is listed as “pH dependent IRI activity”.
In the case of poly(hydroxyproline), the “IRI activity (literature)” value is given as “potent IRI activity”.
